In US20100099640A1, “TISSUE DEGENERATION PROTECTION” (priority 2007, published 2010):

Tests used:
[1] = system: mice with combined leptin and LDL-receptor deficiency (double knockout [DKO] mice); assay: Blood analyses (glucose, insulin, lipids, HOMA, adiponectin) in obese, dyslipidemic and diabetic DKO mice; assay type: in vivo, mouse
Source text: We measured the effect of stevioside on weight, blood variables (e.g. glucose, insulin, lipids), PPAR expression in adipose tissues, and on atherosclerosis in mice with combined leptin and LDL-receptor deficiency (double knockout [DKO] mice).
Homozygous LDL-receptor-knockout mice (LDLR^(−/−)), heterozygous ob/+, and C57BL6 mice were purchased from Jackson Laboratory, Bar Harbor, Me. LDLR^(−/−) mice were backcrossed into a C57BL6 background to the 10th generation. To obtain DKO mice with combined leptin deficiency (ob/ob) and LDL-receptor deficiency, LDLR^(−/−) and ob/+ mice were crossed. All offspring were genotyped by polymerase chain reaction (PCR) techniques. All mice were housed at 22° C. on a fixed 12/12-hour light/dark cycle. Experimental procedures in animals were performed in accordance with protocols approved by the Institutional Animal Care and Research Advisory Committee. All mice were fed standard chow containing 4% fat (Pavan Service). Food intake was ≈5.7 g/d. Mice (about 50 g) were treated with stevioside (N=14; 10 mg/kg), steviol (N=9; 5 mg/kg) or placebo (N=17) for 12 weeks between 12 and 24 weeks of age. Stevioside (Molecular weight: 804) was dissolved in water (1 mg/ml) and 500 μl of the solution was administered orally. Steviol (Molecular weight: 318) was dissolved in water containing 6% NaHCO3 (1 mg/ml) and 250 μl of the solution was administered orally.
Blood of conscious mice was collected by tail bleeding into EDTA tubes after an overnight fast. Plasma was obtained by centrifugation. Plasma cholesterol and triglycerides were measured by means of standard enzymatic colorimetric assays (Boehringer Mannheim), plasma fatty acids (FFA) by means of the FFA-Half Microtest kit (Roche Applied Science), glucose by means of a glucometer (Menarini Diagnostics), plasma insulin and adiponectin by means ELISAs (Mercodia and R&D, respectively). Insulin resistance was calculated by a homeostasis model assessment (HOMA)=fasting serum insulin (mU/L) times fasting blood glucose (mmol/L)/22.5.

3T3-L1 adipocytes = assay: Triglyceride (Oil red O) accumulation during differentiation of 3T3-L1 adipocytes; assay type: cell-based, mouse
Experimental: 3T3-L1 mouse preadipocytes were purchased from the American Type Culture Collection (ATCC). They are cultivated in DHG medium (Dulbecco's modified Eagle's medium+High Glucose 4.5 g/l, GibcoBRL) supplemented with 10% FCS (foetal calf serum, GibcoBRL) and incubated a 37 C+5% CO2 incubator in a humidified atmosphere. For pre-adipocyte differentiation, 3T3-L1 cells were seeded at 50% confluence 3 days before the beginning of the differentiation programme. Confluent cell monolayers (day 0) are switched for 48 h to media containing the adipogenic cocktail: “DHG-L1” medium (DHG that contains 1.5 g/l NaHCO3) supplemented with 10% FCS, 5 μg/ml insulin, 300 μM dibutyryl-cyclicAMP (dbcAMP) and 1 μM dexamethasone. The cells were then refeeded every other day with DHG-L1 containing 10% FCS and 5 μg/ml insulin. At the end, 80-90% of cells were differentiated. […]
To characterize the state of (de)differentiation obtained in the presence of the molecules of interest, triglycerides present in the cells were stained with Oil red O (a dye of the neutral lipids). The absorbance of cell monolayers at 490 nm was measured in a spectrophotometer.

[2] = stevioside 10 mg/kg or steviol 5 mg/kg orally, 12 weeks, compared with placebo mice
[3] = stevioside 10 mg/kg orally, 12 weeks, compared to baseline levels

C=C1C[C@@]23CC[C@H]4C(C)(CCC[C@@]4(C)C(=O)O[C@@H]4O[C@H](CO)C(O)[C@H](O)C4O)[C@@H]2CCC1(OC1O[C@H](CO)C(O)C(O)C1OC1O[C@H](CO)C(O)[C@H](O)C1O)C3 (stereo in doubt) [stevioside, Kaur-16-en-18-oic acid, 13-[(2-O-b-D-glucopyranosyl-b-D-glucopyranosyl)oxy]-, b-D-glucopyranosyl ester, (4a)-]
plasma concentration of adiponectin ([1]; after 12 weeks of treatment, before treatment 4729±1652, P=0.003): 6517 ± 1472 ng/mL
FFA level [1, 2]: significantly lower
HOMA values (insulin resistance) [1, 2]: significantly lower
cholesterol level [1, 2]: significantly lower
glucose level [1, 2]: significantly lower
insulin level [1, 2]: significantly lower
triglyceride level [1, 2]: significantly lower
FFA [1, 3]: reduced
cholesterol [1, 3]: reduced
glucose [1, 3]: reduced
insulin [1, 3]: reduced
triglycerides [1, 3]: reduced
insulin sensitivity ([1]; stevioside 10 mg/kg orally, 12 weeks, result of the decrease in glucose and insulin): increase
triglyceride accumulation in adipocytes (3T3-L1 adipocytes; 50-micromolar (lowest concentration), added during the 7-days differentiation process): did not significantly reduce
lipid deposition (triglyceride accumulation) in adipocytes (3T3-L1 adipocytes; 200-micromolar (4x higher concentration), added during differentiation, steviol dissolved with DMSO): inhibited
